According to patent US9943614B2, “Cationic steroid antimicrobial diagnostic, detection, screening and imaging methods” (BRIGHAM YOUNG UNIVERSITY, priority 2008, dated 2018):

Legend:
HIV = settings: cited from earlier work
S. aureus ATCC 25923 = experiment: In vitro binding of 99mTc-labelled agents to viable S. aureus bacteria; design: species or system Staphylococcus aureus; settings: 10 μg concentration, time not stated
bacteria = settings: cited from earlier work

Row | Structure (SMILES) | HIV infection of primary human CD4+ T cells (HIV) | In vitro binding to bacteria (S. aureus ATCC 25923) [%] | in-vitro binding in published reports (bacteria) [%]
1 | CCCCCCCCNCCC[C@@H](C)[C@H]1CC[C@H]2[C@@H]3[C@H](OCCCN)C[C@@H]4C[C@H](OCCCN)CC[C@]4(C)[C@H]3C[C@H](OCCCN)[C@]12C [CSA-13] | inhibit HIV infection | – | –
2 | O=C([O-])CN(CCN(CC(=O)[O-])CC(=O)[O-])CCN(CC(=O)[O-])CC(=O)[O-].[99Tc+4] [Compound 99mTc-DTPA] | – | ~10 | > 8
